The source made the active and inactive calls.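 How the source made its calls: active means compounds giving half or more protection of infected cells from virus-caused growth loss, again on retest; inactive means the rest.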
Tested on: CEM cells HIV-1 protection, formazan growth assay
Test: NCI AIDS Antiviral Assay
Settings: for IC50: measured here: growth of uninfected CEM cells
Summary of the method: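 Human CEM cells, uninfected and HIV-1-infected, exposed to five drug concentrations; growth measured by soluble formazan assay and scored as percent protection from infection, with protecting compounds retested.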

Structure (SMILES) | EC50 | IC50 | outcome
O=C(CC(=O)CC(O)(C(F)(F)F)C(F)(F)F)CC(O)(C(F)(F)F)C(F)(F)F | > 200 µM | 10.5 µM | 
Nc1ccc(S(=O)(=O)NNc2nc(N3CCCCC3)nc(N3CCCCC3)n2)cc1 | > 200 µM | > 200 µM | 
COC(=O)C1CC2c3ccccc3C1c1ccccc12 (stereo not drawn) | > 200 µM | > 200 µM | 
O=C(Cc1cccs1)N[C@@H]1C(=O)N2C(C(=O)OC(c3ccccc3)c3ccccc3)=C(CO)CS[C@H]12 | > 200 µM | 195 µM | 
COc1cc2c(cc1OC)CC1c3cc(OC)c(OC)cc3CCN1CC2 (stereo not drawn) | > 200 µM | 30.2 µM | 
CCOC(=O)Cc1csc(/N=C\c2c(O)c3ccccc3oc2=O)n1 | > 200 µM | 40.7 µM | 
O=Cc1c(C(=O)O)[nH]c(=O)[nH]c1=O | > 200 µM | > 200 µM | 
COC(=O)c1ccccc1NC(=S)NN(C)C | > 200 µM | 151 µM | 
CN(C)C=Nc1c2ccccc2nc2ccccc12 | > 200 µM | 2.45 µM | 
NC(CCC(=O)NC(CS)C(=O)NCC(=O)O)C(=O)O (stereo not drawn) | > 288 µM | > 288 µM | 
NNC(=O)c1ccncc1 | > 200 µM | > 200 µM | 
Cc1ccccc1[P+](Cc1ccccc1)(c1ccccc1)c1ccccc1 | > 200 µM | 1.26 µM | 
CC(C)OP(=O)(NC(=S)c1ccccc1)OC(C)C | > 316 µM | 295 µM | 
Cc1ccc(C(=O)O)c(CC2Cc3c(C)cccc3C2=O)c1 (stereo not drawn) | > 200 µM | 155 µM | 
C/C(=N/NC(=S)N(C)C)c1ccccc1O | > 200 µM | 11.7 µM | 
CCCNC(=O)Sc1ccccc1C(=O)N[C@@H](C)C(N)=O | > 4.17 µM | 1.41 µM | 
CCOC(=O)/C=C\SCCC(=O)O | > 1230 µM | > 1230 µM | 
CCOC(=O)/C=C(/N=P(c1ccccc1)(c1ccccc1)c1ccccc1)C(F)(F)F | > 200 µM | 13.8 µM | 
COc1ccc(-c2sc(/N=C/c3cc(OC)c(OC)c(OC)c3)c(C#N)c2C)cc1OC | > 200 µM | 11.2 µM | 
COc1ccc(C2=C(N)c3cc(OC)ccc3C2=O)cc1 | > 200 µM | > 200 µM | 
C[n+]1cc2c3c(ccc2c2ccc4cc5c(cc4c21)OCO5)OCO3 | > 1.58 µM | 0.288 µM | 
COC(=S)C12CC3CC(CC(C3)C1)C2 |  |  | inactive

Structure (SMILES) | EC50 | IC50 | outcome
COC(=O)N1C2c3ccccc3C(c3ccccc32)N1C(=O)OC | > 200 µM | > 200 µM | 
CN1CC(c2ccccc2)N(CCCCN2CC(c3ccccc3)N(C)CC2c2ccccc2)CC1c1ccccc1 (stereo not drawn) | > 100 µM | 58.9 µM | 
CCOC1C2c3cc(OC)c(OC)cc3CC(C#N)(c3ccccc32)N1C(=O)c1ccccc1 (stereo not drawn) |  |  | inactive
CCSCN(C)c1nc(N(C)C)nc(N(C)C)n1 | > 200 µM | 8.51 µM | 
CC1CCC(C(C)C)C(OC(=O)NCn2cc(-c3ccccc3)nn2)C1 (stereo not drawn) | > 200 µM | > 200 µM | 
CCCCCCCCCCCCOCCOCCOCCOCCOCCOCC(=O)NC(Cc1ccccc1)C(=O)Oc1ccc([N+](=O)[O-])cc1 (stereo not drawn) | > 200 µM | 17.8 µM | 
Nc1cccc(Nc2nc3ccccc3nc2NS(=O)(=O)c2ccccc2)c1 | > 200 µM | 51.3 µM | 
[N-]=[N+]=NCc1cccc(Nc2cc(=O)[nH]c(=O)[nH]2)c1 | 49 µM | > 200 µM | 
CC(=O)[O-].COc1cccc(/C=N/[N-]C(=O)c2ccncc2)c1.[OH3+].[OH3+].[OH3+].[Zn+2] | > 200 µM | 3.89 µM | 
Fc1ccc(C2SCc3nc4ccccc4n32)c(F)c1 (stereo not drawn) |  |  | inactive
COc1ccc2nc(N/N=C/C(C)=N/Nc3cc(C)c4cc(OC)ccc4n3)cc(C)c2c1 | > 100 µM | 14.5 µM | 
C[n+]1c(/C=C/c2ccc3c(c2)OCO3)ccc2ccccc21 | > 200 µM | 5.89 µM | 
CN(C)Cc1cc(N=Nc2ccc(Cl)cc2)cc(CN(C)C)c1O | > 20 µM | 8.71 µM | 
Nn1c(CCCCCCCCc2nnc(COc3ccc(Cl)cc3)n2N)nnc1COc1ccc(Cl)cc1 | > 200 µM | 85.1 µM | 
COC(=O)c1cc(C(CCl)c2cc(C(=O)OC)c(O)c(Br)c2C)c(C)c(Br)c1O |  |  | inactive
Clc1ccc(C=NC23CC4CC(CC(C4)C2)C3)cc1Cl | > 200 µM | 95.5 µM | 
CCC(=O)c1cc(C(=O)C(=S)SC)cc(C(=O)C(=S)SC)c1 | 20 µM | 30.9 µM | 
CCOC(=O)c1ccc(NC(=O)Nc2ncccc2C)cc1 | > 200 µM | > 200 µM | 
c1ccc(CN2CCc3[nH]c4ccccc4c3C2)cc1 | > 200 µM | 21.9 µM | 
COC(=O)C1(O)C(c2ccccc2)NC2(C)CCCC21 (stereo not drawn) | > 200 µM | > 200 µM | 
O=C1NC(=S)NC1C(Cc1ccccc1)c1ccccc1 (stereo not drawn) | > 200 µM | 85.1 µM | 
O=c1c2ccccc2n2c(-c3ccccc3O)nnc2n1-c1ccccc1 | > 200 µM | > 200 µM | 

Structure (SMILES) | EC50 | IC50 | outcome
Cc1ccc(S(=O)(=O)N/N=C2/C3C(CC2(C)C)C2(C)CCCC3(C)C2O)cc1 (stereo not drawn) | > 200 µM | > 200 µM | 
CCCCC(/C=N/Nc1ccc([N+](=O)[O-])cn1)CC (stereo not drawn) | > 200 µM | > 200 µM | 
COC(=O)C1=C(C(=O)OC)c2cc(OC)ccc2C(C(=S)N(C)C)S1 (stereo not drawn) | > 200 µM | > 200 µM | 
c1ccc(C[P+](c2ccccc2)(c2ccccc2)c2ccccc2)cc1 | > 200 µM | 3.89 µM | 
CCCCCCCCCCCCCCCC(=O)Nc1ccn(C2CC(OP(=O)(O)OCC3OC(n4cc(C)c(=O)[nH]c4=O)CC3N=[N+]=[N-])C(CO)O2)c(=O)n1 (stereo not drawn) | 0.813 µM | > 100 µM | 
Cc1ccc(NC2=NCCS2)c(C)c1 | > 200 µM | > 200 µM | 
c1ccc(-c2sc(-c3cccs3)cc2Cc2cccs2)cc1 | > 200 µM | 83.2 µM | 
CC(C)(C)OC(=O)N(CCCN)CCCCN(CCCN)C(=O)OC(C)(C)C |  |  | inactive
COC(=O)[C@H](CCCN=C(N)N)NC(=O)CCCCCCCCCCNC(=O)c1cc(CNC2=NCCN2)cc(CNC2=NCCN2)c1 | > 100 µM | > 100 µM | 
NC(=O)N/N=C(\C(=O)C(=O)Nc1ccc(Cl)c(C(F)(F)F)c1)c1nc2ccc(C(=O)c3ccccc3)cc2[nH]c1=O | > 61.7 µM | > 61.7 µM | 
COc1ccc(C(=O)CC(c2ccc3c(c2)OCO3)c2c(O)c3ccccc3oc2=O)cc1OC (stereo not drawn) | > 200 µM | 89.1 µM | 
Cn1ccnc1CCc1c(Cl)cccc1Cl | > 851 µM | 123 µM | 
CC(C)c1c(Cc2ccccc2)n(COCCC[Se]c2ccccc2)c(=O)[nH]c1=O | 0.0501 µM | 1.38 µM | 
Cc1cn(C2C[C@H]3ONC[C@H]3O2)c(=O)[nH]c1=O (stereo partly drawn) | > 200 µM | > 200 µM | 
CN(C)c1ccc(/C=C(\C#N)C(=O)c2ccccc2)cc1Br | > 14.8 µM | > 14.8 µM | 
CCCCCCCCCCC(c1ccc(O)c(C(=O)O)c1)c1ccc(O)c(C(=O)O)c1 | > 447 µM | 107 µM | 
CN(C)CCCNC(=O)c1nc(NC(=O)c2nc(NC(=O)c3nc(NC(=O)c4ccc(C(=O)Nc5cn(C)c(C(=O)Nc6cn(C)c(C(=O)Nc7cn(C)c(C(=O)NCCCN(C)C)n7)n6)n5)cc4)cn3C)cn2C)cn1C | > 50.1 µM | > 50.1 µM | 
CCC1(OC(C)=O)C(=O)OCc2c1cc1n(c2=O)Cc2cc3ccccc3nc2-1 (stereo not drawn) | > 10 µM | 0.129 µM | 
O=C1c2ccccc2-c2c1c1ccccc1c(=O)n2-c1cccnc1 | > 30.9 µM | 7.08 µM | 
O=c1c2c3c(sc2nc2n1N=C(c1ccc(Cl)cc1)CS2)CCCC3 | > 200 µM | > 200 µM | 
NC(=O)c1cccn1Cc1ccccc1SSc1ccccc1Cn1cccc1C(N)=O | > 15.8 µM | 7.08 µM | 
O=S(=O)(O)SCCCNCCCCCCCCNCCCSS(=O)(=O)O | > 200 µM | 10 µM | 

Structure (SMILES) | EC50 | IC50 | outcome
COC(=O)c1ccc(CSc2ccccc2)cc1 | > 28.2 µM | > 28.2 µM | 
CCOC(=O)C1N=[N+](c2ccccc2)C(=O)/C1=C\n1c(=S)[nH]c2ccc([N+](=O)[O-])cc21 (stereo not drawn) | > 200 µM | 107 µM | 
O/N=C1/C(=C/c2ccc(Oc3ccccc3)cc2)CCCC1C(NO)c1ccc(Oc2ccccc2)cc1 (stereo not drawn) | > 10.2 µM | > 10.2 µM | 
O=C1c2cccc(NCCCNCCO)c2C(=O)c2cccc(NCCCNCCO)c21 |  |  | inactive
COc1nc2c(c(=O)[nH]1)N=C(c1ccccc1)CC(c1ccccc1)N2 (stereo not drawn) | > 200 µM | > 200 µM | 
CC1(C)CC(=O)C(CC2C(=O)CC(C)(C)CC2=O)C(=O)C1 | > 200 µM | > 200 µM | 
COc1ccc2c(c1)N(C)CCCC2=O | > 200 µM | 151 µM | 
Nc1nnc(N)n1-n1c(N)nnc1N | > 200 µM | 166 µM | 
CCCN1CN(C(C(=O)N[C@@H]2C(=O)N3C(C(=O)O)=C(C)CSC23)c2ccccc2)CSC1=S (stereo partly drawn) | > 355 µM | 204 µM | 
Cn1c(=O)c2cc(O)cnc2n(C)c1=O | > 200 µM | > 200 µM | 
NC(CCCCNCc1ccccc1)C(=O)O (stereo not drawn) | > 1050 µM | > 1050 µM | 
O=S1(=O)OC(c2cc(Cl)c(O)c(Br)c2)(c2cc(Cl)c(O)c(Br)c2)c2ccccc21 | 380 µM | 501 µM | 
CC1=C(C#N)C2(N)OC1(C)C1C(=O)C=CC(=O)C12 (stereo not drawn) | > 200 µM | 23.4 µM | 
COC(=O)[C@H]1C2c3ccccc3-c3ccccc3C2(OC(C)=O)[C@@]1(Cl)C(=O)OC (stereo partly drawn) | > 43.7 µM | 6.31 µM | 
Cc1cc(N(CCC#N)CCC#N)ccc1N=Nc1ccc(Br)cc1 | > 6.92 µM | > 6.92 µM | 
O=C1C=CC[C@H](/C=C/C[C@@H](O)C[C@H](O)/C=C/c2ccccc2)O1 | > 200 µM | 5.37 µM | 
CCOC(=O)CC(NC(=O)c1nc[nH]c1[N+](=O)[O-])C(=O)OCC (stereo not drawn) | > 79.4 µM | 39.8 µM | 
NC(=O)n1ncc(Cl)c(Cl)c1=O | > 91.2 µM | 47.9 µM | 
CC(=O)[C-](C)C(C)=O.CC(=O)[C-](C)C(C)=O.NCCNCCNC(=O)c1cccc2nc3ccccc3nc12.[Cl-].[Co+3] | > 151 µM | 31.6 µM | 
COc1ccc(OC)c(NC(=O)C(=O)Nn2c(=S)[nH]c3ccccc3c2=O)c1 | > 631 µM | 372 µM | 
O=c1c(-c2cccc(O)c2)coc2cc(O)c(O)cc12 | > 200 µM | 10.5 µM | 

Source: PubChem BioAssay AID179 (DTP/NCI, 2004)
